Non-standard residues stand in square brackets, D forms with d. Residues, ends and D or L forms follow the SMILES beside them.
Columns and labels:
[1] = Cytotoxicity in HIV-1 assay (MTS cell viability); conditions: human, CEM-SS cells (uninfected, cells plus peptide only)
[2] = system: A549 cells; assay: Apoptosis induction assay (Annexin-5); type: cell-based, human; conditions: apoptosis induction in A549 cells, 24 hours exposure
Description: Human A549 cells (carcinomic human alveolar basal epithelial cells) were utilized in the experiments employing the Annexin-5 apoptosis assay. Annexin-5 is a member of a highly conserved protein family that binds acidic phospholipids in a calcium-dependent manner. […] Phosphatidylserine is translocated from the inner side of the plasma membrane to the outer layer when cells undergo death by apoptosis or cell necrosis and serves as a signal by which cell destined for death are recognized by phagocytes. Test peptide—[…]—were exposed for 24 hours to the A549 cells before they were analyzed for signs of apoptosis.

[3] = system: Primary Human endothelial cells (HUVEC); assay: Endothelial cell migration assay; type: cell-based; conditions: peptide 10 micrograms per ml, 22 hours
Experimental: Endothelial cell migration is a prerequisite for the process of neo-vascularization or angiogenesis which is crucial for on-site recruitment of blood vessel formation. Primary Human endothelial cells (HUVEC) were seeded in insert chambers with 3 micrometer pore size of multi-transwell plate for 6 hours at 37° C. in Endothelial Cell Basal Medium (EBM) supplemented with 0.1% bovine serum albumin. Thereafter, designated concentration of test peptide—10 micrograms per ml—was added in duplicate wells. The endothelia were allowed to migrate for 22 hours at 37° C., then, migrated cells were fixed and stained with Hoechst 33342 dye. Images of 3 fields per insert were taken and the number of migrated cells per field were quantified using the ImageProPlus software. Data were analyzed for the average number of the migrated cells and standard deviation of six data points for each treatment condition. Active test peptide against HUVEC migration was determined based on 50% inhibition of migrated cells as compared with the control. Statistic p values were computed using the Student's t-test.

[4] = system: Human Peripheral Blood Mononuclear Cells (PBMC); assay: T cell proliferation assay (PHA, 3H-thymidine); type: cell-based; conditions: peptide 10 micrograms per ml, 3H-thymidine incorporation
Experimental: (§1) Human Peripheral Blood Mononuclear Cells (PBMC) were obtained from normal human donors. The T cell proliferation was induced by stimulation of the cells with the T cell mitogen phytohemagglutinin (PHA), either in the absence (positive proliferation control), or in the presence of test peptide—10 micrograms per ml—to examine their effects on the T cell proliferating response. 10^5/well PBMC were plated in 96-well microtiter plates and assayed in duplicate with the peptide. Cell cultures were incubated at 37° C. for 3 days in a 5% CO2 incubator and were thereafter pulsed with 1 microCi/well ^3H-thymidine for additional 12 hours of culture. At the end of incubation time, the plates were harvested and the cells counted by liquid scintillation for the incorporation of ^3H-thymidine as a measure of T cell proliferation.

[5] = system: Human Peripheral Blood Mononuclear Cells (PBMC); assay: B cell proliferation assay (SAC plus Interleukin-2, 3H-thymidine); type: cell-based; conditions: peptide 10 micrograms per ml, 3H-thymidine incorporation
Experimental: as §1, with “The B” for “The T”, “the B” for “the T”, “mitogen Staphylococcus aureus Cowans I (SAC) plus Interleukin-2,” for “mitogen phytohemagglutinin (PHA),”, “cell” for “cell proliferating”, “of B” for “of T”

[6] = Cytotoxicity in HCMV assay (CellTiter 96 cell viability); conditions: human, MRC-5 cells (embryonal lung fibroblasts)
Experimental: For cytotoxicity testing, MRC-5 cells were seeded at 2,500 cells/well in 96 well plates using growth medium. […] The following day, peptide was added and tested in duplicates. After a 6 days incubation period, cell viability was measured using CellTiter 96 Solution (Promega). Plates were incubated for additional 4 hours at 37° C. Adhesive plate sealers were used in place of lids, the sealed plates were inverted several times to mix the soluble formazan product and the plate was read spectrophotometrically at 490/560 nm with a Molecular Devices Vmax plate reader.

[7] = system: hepatitis B virus (HBV) ayw strain; assay: HBV assay, secreted HBV DNA by TaqMan PCR in HepG2-2.2.15; conditions: peptide 10 micrograms per ml; six days; HBV DNA in supernatant
[8] = system: HIV-1IIIB; assay: HIV-1 antiviral assay (CPE reduction, MTS); type: cell-based; conditions: peptide 10 micrograms per ml, 6 days post-infection
[9] = system: A549 cells; assay: Apoptosis prevention assay (C2 ceramide, Annexin-5); type: cell-based, human; conditions: A549 cells pretreated 30 min with peptide 10 micrograms per ml, then C2 ceramide
Description: Human A549 cells (carcinomic human alveolar basal epithelial cells) were utilized in the experiments employing the Annexin-5 apoptosis assay. Annexin-5 is a member of a highly conserved protein family that binds acidic phospholipids in a calcium-dependent manner. […] Phosphatidylserine is translocated from the inner side of the plasma membrane to the outer layer when cells undergo death by apoptosis or cell necrosis and serves as a signal by which cell destined for death are recognized by phagocytes. A549 cells were pretreated for 30 min with test peptide—10 micrograms per ml—followed by the exposure to C2 ceramide. Ceramide mediates cell apoptosis through the activation of the mitogen activating protein kinase (MAPK) and the stress activated kinase (JNK/SAPK). C2 ceramide is a synthetic, membrane soluble analog of ceramide.

CC(C)C[C@H](NC(=O)[C@H](CC(C)C)NC(=O)[C@@H](Cc1c[nH]c2ccccc12)NC(=O)[C@H](Cc1ccccc1)NC(=O)[C@@H](Cc1c[nH]c2ccccc12)NC(=O)[C@H](CCC(N)=O)NC(=O)[C@H](CCC(N)=O)NC(=O)[C@@H]1CCCN1C(=O)[C@H](CCCCN)NC(=O)[C@@H]1CCCN1C(=O)[C@@H](CCCNC(=N)N)NC(=O)[C@@H]1CCCN1C(=O)CNC(=O)[C@H](CC(C)C)NC(=O)[C@H](CC(C)C)NC(=O)[C@H](Cc1ccc(O)cc1)NC(=O)CNC(=O)[C@H](C)NC(=O)[C@H](CO)NC(=O)[C@H](CC(N)=O)NC(=O)[C@H](CC(C)C)NC(=O)[C@@H](NC(=O)[C@H](Cc1c[nH]c2ccccc12)NC(=O)CN)[C@@H](C)O)C(N)=O [Spantide-I, Gly-Trp-Thr-Leu-Asn-Ser-Ala-Gly-Tyr-Leu-Leu-Gly-Pro-D-Arg-Pro-Lys-Pro-Gln-Gln-D-Trp-Phe-D-Trp-Leu-Leu-NH2] (H-GWTLNSAGYLLGP[dR]PKPQQ[dW]F[dW]LL-NH2)
viability at 10 micrograms per ml [1]: 100%
% of induction [2]: 1.4%
% inhibition of migration [3]: −25%
% of PHA induced control [4]: 96.3%
% of SAC/IL2 induced control [5]: 106.6%
viability at 144 h [6]: 100%
% inhibition of HBV replication in HEP G2 cells [7]: 14.1%
% CPE reduction in HIV-1 infected CEM-SS cells [8]: 0.0%
% prevention of ceramide induced apoptosis [9]: −20.5%
